Measured values reported in patent publication US7538135B2, “Benzenesulfonylamino compounds and pharmaceutical compositions containing these compounds” (Novartis AG, priority 2003, dated 2009).

What was measured:
GST-hPPARα LBD = target: T1, GST-hPPARα LBD (Homo sapiens, UniProt Q07869); experiment: PPARα receptor binding assay (CARLA, TR-FRET functional binding); assay type: biochemical; settings: TR-FRET coactivator (SRC-1 peptide) recruitment, 3 hours at room temperature
T1 construct: made in house; host or cells: E. coli BL21(DE3)
T1 sequence (Q07869 167-468): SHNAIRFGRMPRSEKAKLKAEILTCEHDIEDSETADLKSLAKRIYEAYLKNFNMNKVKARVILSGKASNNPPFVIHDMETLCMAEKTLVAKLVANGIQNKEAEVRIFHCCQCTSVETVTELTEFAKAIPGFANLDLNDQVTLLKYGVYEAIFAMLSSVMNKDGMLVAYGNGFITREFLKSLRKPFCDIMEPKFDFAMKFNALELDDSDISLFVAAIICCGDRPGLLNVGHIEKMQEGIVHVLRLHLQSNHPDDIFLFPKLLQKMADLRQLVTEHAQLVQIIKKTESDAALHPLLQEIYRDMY
T1 sequence (Q15788 676-700 partner limits assumed): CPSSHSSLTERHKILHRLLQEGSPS
Experimental: (§1) The in vitro functional binding to the PPARα, PPARδ and PPARγ receptors is determined as follows:
(§2) The functional binding assays for the PPARα, PPARδ and PPARγ receptors are a variation of the coactivator-dependent receptor ligand assay (CARLA) (see Krey et al., “Fatty Acids, Eicosanoids, and Hypolipidemic Agents Identified as Ligands of Peroxisome Proliferator-Activated Receptors by Coactivator-Dependent Receptor Ligand Assay”, Molecular Endocrinology, Vol. 11, pp. 779-791 (1997)). The present CARLA assays use a TR-FRET detection method previously reviewed (see Hemmila, “LANCE: Homogeneous Assay Platform for HTS”, J. Biomol. Screening, Vol. 4, pp. 303-307 (1999); Mathis, “HTRF Technology”, J. Biomol. Screening, Vol. 4, pp. 309-313 (1999)). […] This brings the Eu-labeled anti-GST antibody and the strepavidin-labeled APC in close proximity, thereby facilitating fluorescence energy transfer. […] After mixing all components, the reaction mixture stands for 3 hours at room temperature before reading the TR-FRET (Time-Resolved Fluorescence Resonance Energy Transfer) signal on a Wallac Victor 2 plate reader (measuring the ratio of signals at […]). […]

GST-hPPARγ LBD = target: T2, GST-hPPARγ LBD (Homo sapiens, UniProt P37231); experiment: PPARγ receptor binding assay (CARLA, TR-FRET functional binding); assay type: biochemical; settings: TR-FRET coactivator (SRC-1 peptide) recruitment, 3 hours at room temperature
T2 construct: GST-hPPARγ LBD (amino acids 175-476); made in house; host or cells: E. coli BL21(DE3)
T2 sequence (P37231 175-476 isoform P37231-2): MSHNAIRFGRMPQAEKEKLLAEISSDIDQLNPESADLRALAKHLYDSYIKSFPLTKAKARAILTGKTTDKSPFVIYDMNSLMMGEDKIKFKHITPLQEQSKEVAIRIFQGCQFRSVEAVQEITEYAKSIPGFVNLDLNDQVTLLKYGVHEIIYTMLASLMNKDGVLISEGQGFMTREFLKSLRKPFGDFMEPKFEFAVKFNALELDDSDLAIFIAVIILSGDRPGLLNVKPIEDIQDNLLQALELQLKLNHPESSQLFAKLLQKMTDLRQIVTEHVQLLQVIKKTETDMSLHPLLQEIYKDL
T2 sequence (Q15788 676-700 partner limits assumed): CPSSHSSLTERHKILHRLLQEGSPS
Experimental: as §1, §2

EC50 (GST-hPPARα LBD): ~5 nM
EC50 (GST-hPPARγ LBD): ~3 nM
Compound: CCOC(=O)c1cn(CC)nc1NS(=O)(=O)c1ccc(OCc2nc(-c3ccc(C(F)(F)F)cc3)oc2C)cc1 [Example 1, 1-Ethyl-3-{4-[5-methyl-2-(4-trifluoromethyl-phenyl)oxazol-4-ylmethoxy]-benzene-sulfonylamino}-1H-pyrazole-4-carboxylic acid ethyl ester]
